Source: EPA's ToxValDB 9.5 (doi:10.2903/j.efsa.2005.285)

What was measured:
[1] = system: Gallus gallus; conditions: reproduction developmental, oral, diet, F
[2] = system: Ovis sp.; conditions: oral, diet
[3] = system: Bovidae; conditions: subchronic, oral, diet; for LEL: duration: 12 weeks, no effects
[4] = system: Sus scrofa; conditions: subchronic; duration: 60 days; oral; diet; Not specified; no effects
[5] = system: Oncorhynchus mykiss; conditions: chronic/long-term; duration: 240 days; oral; feed; clinical chemistry
[6] = system: Canidae; conditions: chronic, oral, Beagle, organ weight

ClC1=C(Cl)[C@]2(Cl)[C@@H]3[C@@H]4C[C@@H]([C@H]5O[C@@H]45)[C@@H]3[C@@]1(Cl)C2(Cl)Cl [Dieldrin]
NOAEL ([1]; duration: 13 months, mortality): 0.6 mg/kg-day | NOAEL ([2]; chronic, duration: 32 weeks, body weight): 1 mg/kg-day | LEL ([3]; F): 0.08 mg/kg-day | LEL ([3]; M): 0.06 mg/kg-day | LEL [4]: 1.2 mg/kg-day | LOEL [5]: 14 µg/kg-day | NOAEL ([6]; duration: 2 years, capsule): 0.005 mg/kg-day

ClC1=C(Cl)[C@]2(Cl)[C@H]3[C@H]([C@@H]4C=C[C@H]3C4)[C@@]1(Cl)C2(Cl)Cl [Aldrin]
NOAEL ([1]; duration: 2 years, no effects): 0.06 mg/kg-day | LEL ([2]; subchronic, duration: 12 weeks, no effects): 0.3 mg/kg-day | LEL ([3]; M): 0.3 mg/kg-day | NOAEL ([3]; duration: 43 days, F, clinical signs): 1.5 mg/kg-day | NOAEL ([6]; duration: 15.6 months, diet, M/F): 0.05 mg/kg-day
